Source: ChEMBL document CHEMBL1201862, “PubChem BioAssay data set” (2004)
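A five-concentration, 48-hour dose response in 96-well plates underlies each endpoint, interpolated linearly between surrounding concentrations. GI50 is the concentration that inhibits growth by half.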 Calls of active or inactive are those of the source. Rule as the data show it: active = GI50 up to about 1.1 µM and inactive = higher.

Tests used:
Experiment in all cases: NCI-60 cell line screen, 48 h
CCRF-CEM = system: CCRF-CEM
DU-145 = system: DU-145
HCT-116 = system: HCT-116
HOP-62 = system: HOP-62
Hs-578T = system: Hs-578T
IGROV-1 = system: IGROV-1
NCI-H460 = system: NCI-H460
OVCAR-3 = system: OVCAR-3
OVCAR-4 = system: OVCAR-4
OVCAR-5 = system: OVCAR-5
PC-3 = system: PC-3
RPMI-8226 = system: RPMI-8226
SF-539 = system: SF-539
SK-MEL-2 = system: SK-MEL-2
SNB-75 = system: SNB-75
SW-620 = system: SW-620
T47D = system: T47D
UACC-257 = system: UACC-257
UO-31 = system: UO-31

Compound | GI50 (CCRF-CEM) | GI50 (DU-145) | GI50 (HCT-116) | GI50 (HOP-62) | GI50 (Hs-578T) | GI50 (IGROV-1) | GI50 (NCI-H460) | GI50 (OVCAR-3) | GI50 (OVCAR-4) | GI50 (OVCAR-5) | GI50 (PC-3) | GI50 (RPMI-8226) | GI50 (SF-539) | GI50 (SK-MEL-2) | GI50 (SNB-75) | GI50 (SW-620) | GI50 (T47D) | GI50 (UACC-257) | GI50 (UO-31)
N#Cc1c2c(c(Nc3ccc(Cl)cc3)n3c1nc1ccccc13)CCCC2 | 34.6 µM (inactive) | > 69.2 µM (inactive) | 8.65 µM (inactive) | 31.2 µM (inactive) | 26.2 µM (inactive) | 47.4 µM (inactive) | 14.8 µM (inactive) | 13.4 µM (inactive) | 16.2 µM (inactive) | > 100 µM (inactive) | 7.06 µM (inactive) | 4.75 µM (inactive) | 21.1 µM (inactive) | > 63.8 µM (inactive) | 28.7 µM (inactive) | > 61 µM (inactive) | 33.1 µM (inactive) | 48 µM (inactive) | > 51.2 µM (inactive)
O=c1[nH]cnc2c1ncn2C1SC(CO)C(O)C1O (configuration not stated) | > 100 µM (inactive) | > 100 µM (inactive) | > 100 µM (inactive) | > 100 µM (inactive) | > 100 µM (inactive) | > 100 µM (inactive) | > 100 µM (inactive) | > 100 µM (inactive) | > 100 µM (inactive) | > 100 µM (inactive) | > 100 µM (inactive) | > 100 µM (inactive) | > 100 µM (inactive) | > 100 µM (inactive) | > 100 µM (inactive) | > 100 µM (inactive) | > 100 µM (inactive) | > 100 µM (inactive) | > 100 µM (inactive)
N#Cc1cnc(N)nc1NCC1(CO)CC(CCc2ccccc2)C1 (configuration not stated) | > 100 µM (inactive) | > 100 µM (inactive) | 12 µM (inactive) | 58.1 µM (inactive) | > 70.8 µM (inactive) | 55 µM (inactive) | > 100 µM (inactive) | > 90.4 µM (inactive) | > 100 µM (inactive) | > 100 µM (inactive) | > 91.2 µM (inactive) | > 100 µM (inactive) | > 100 µM (inactive) | > 100 µM (inactive) | 20.8 µM (inactive) | > 100 µM (inactive) | 0.301 µM (active) | 42.1 µM (inactive) | 20.3 µM (inactive)
O=C(CSc1nc2ccc(Cl)cc2c(=O)n1-c1ccccc1)N/N=C1\C(=O)Nc2ccc(F)cc21 | 2.7 µM (inactive) | 2.16 µM (inactive) | 2.02 µM (inactive) | 1.75 µM (inactive) | 4.25 µM (inactive) | 2.17 µM (inactive) | 3.7 µM (inactive) | 1.89 µM (inactive) | 2.16 µM (inactive) | 2.9 µM (inactive) | 2.39 µM (inactive) | 1.77 µM (inactive) | 2.86 µM (inactive) | 1.95 µM (inactive) | 2.24 µM (inactive) | 2.33 µM (inactive) | 2.07 µM (inactive) | 3.56 µM (inactive) | 0.189 µM (active)
N#CC(C#N)=CNC(N)=S | > 100 µM (inactive) | > 100 µM (inactive) | > 100 µM (inactive) | > 100 µM (inactive) | > 100 µM (inactive) | > 100 µM (inactive) | > 100 µM (inactive) | 1.5 µM (inactive) | > 100 µM (inactive) | > 100 µM (inactive) | > 100 µM (inactive) | > 100 µM (inactive) | > 100 µM (inactive) | > 100 µM (inactive) | > 100 µM (inactive) | > 100 µM (inactive) | > 100 µM (inactive) | > 100 µM (inactive) | 
NS(=O)(=O)c1ccc(NC(=S)NC=C2C(=O)c3ccccc3C2=O)cc1 | > 100 µM (inactive) | 94 µM (inactive) | > 100 µM (inactive) | > 100 µM (inactive) | 14.4 µM (inactive) | 23.3 µM (inactive) | > 100 µM (inactive) | 55.8 µM (inactive) | 49 µM (inactive) | > 100 µM (inactive) | > 100 µM (inactive) | 36.4 µM (inactive) | 35.5 µM (inactive) | 62.1 µM (inactive) | 19.4 µM (inactive) | > 100 µM (inactive) | 30.8 µM (inactive) | > 100 µM (inactive) | 22.6 µM (inactive)
O=c1[nH]c2c(c(=O)[nH]1)SSC2 | 0.46 µM (active) | 13.8 µM (inactive) | 3.14 µM (inactive) | 10.6 µM (inactive) | 24.2 µM (inactive) | 22.3 µM (inactive) | 11.7 µM (inactive) | 19 µM (inactive) | 17.3 µM (inactive) | 16.6 µM (inactive) | 24 µM (inactive) | 0.838 µM (active) | 3.14 µM (inactive) | 6.44 µM (inactive) | 17.1 µM (inactive) | 7.19 µM (inactive) | 11.2 µM (inactive) | 4.99 µM (inactive) | 11.8 µM (inactive)
CCOC(=O)C(Cc1ccc2c(c1)CCC2)Cc1ccc2c(c1)CCC2 | 27.1 µM (inactive) | > 100 µM (inactive) | 33.3 µM (inactive) | > 100 µM (inactive) | > 100 µM (inactive) | > 100 µM (inactive) | > 100 µM (inactive) | > 100 µM (inactive) | > 100 µM (inactive) | > 100 µM (inactive) | 38.9 µM (inactive) | 44.4 µM (inactive) | > 100 µM (inactive) | > 100 µM (inactive) | > 100 µM (inactive) | > 100 µM (inactive) | 53.1 µM (inactive) | 54.5 µM (inactive) | 78 µM (inactive)
CC(C)=CCC[C@H](C)[C@H]1CC[C@@H](C)c2cc(O)c(C)cc21 | 22.9 µM (inactive) | 19.5 µM (inactive) | 18.4 µM (inactive) | 19.1 µM (inactive) | 19.9 µM (inactive) | 17.1 µM (inactive) | 18.4 µM (inactive) | 18.8 µM (inactive) | 15.5 µM (inactive) | 16.1 µM (inactive) | 17.4 µM (inactive) | 26.1 µM (inactive) | 17.8 µM (inactive) | 17 µM (inactive) | 19.1 µM (inactive) | 23.1 µM (inactive) | 16.9 µM (inactive) | 17.4 µM (inactive) | 14 µM (inactive)
COC(=O)[C@]1(C)CCC[C@]2(C)[C@H]3CC[C@]4(C(C)C)OO[C@@H](O4)[C@]34O[C@@H]4C[C@H]21 | 0.5 µM (active) | 1.64 µM (inactive) | 1.63 µM (inactive) | 2.12 µM (inactive) | 2.63 µM (inactive) | 0.157 µM (active) | 1.88 µM (inactive) | 1.8 µM (inactive) | 1.85 µM (inactive) | 5.18 µM (inactive) | 1.48 µM (inactive) | 3.44 µM (inactive) | 10.6 µM (inactive) | 14.3 µM (inactive) | 3.87 µM (inactive) | 3.1 µM (inactive) | 1.76 µM (inactive) | 14.9 µM (inactive) | 0.641 µM (active)
Cc1cc(C)n(-c2nc3ccccc3c(=O)[nH]2)n1 | 0.356 µM (active) | 5.89 µM (inactive) | 1.88 µM (inactive) | 2.29 µM (inactive) | 24.8 µM (inactive) | 1.5 µM (inactive) | 1.21 µM (inactive) | 4.11 µM (inactive) | 56.6 µM (inactive) | > 77.3 µM (inactive) | 5.96 µM (inactive) | 3.92 µM (inactive) | 4.4 µM (inactive) | 8.47 µM (inactive) | 14.1 µM (inactive) | 3.28 µM (inactive) | 11 µM (inactive) | 33.6 µM (inactive) | 3.77 µM (inactive)
Nc1cc2c3c(c1)Oc1cc(N)cc4c1C3c1c(cc(N)cc1O4)O2 | 43.4 µM (inactive) | 3.03 µM (inactive) | 21.7 µM (inactive) | 25.7 µM (inactive) | 24.2 µM (inactive) | 10.4 µM (inactive) | 30.3 µM (inactive) | 20.2 µM (inactive) | 56.5 µM (inactive) | 29 µM (inactive) | 26.1 µM (inactive) | 14.7 µM (inactive) | 15.7 µM (inactive) | 28.9 µM (inactive) | 19.3 µM (inactive) | 33.7 µM (inactive) | 20.7 µM (inactive) | 30.5 µM (inactive) | 47.2 µM (inactive)
O=C(n1c(=O)n(-c2ccc([N+](=O)[O-])cc2)c(=O)n1C(=O)C(Cl)(Cl)Cl)C(Cl)(Cl)Cl | > 100 µM (inactive) | > 100 µM (inactive) | > 100 µM (inactive) | > 100 µM (inactive) | > 100 µM (inactive) | > 100 µM (inactive) | > 100 µM (inactive) | > 100 µM (inactive) | > 100 µM (inactive) | > 100 µM (inactive) | > 100 µM (inactive) | > 100 µM (inactive) | > 100 µM (inactive) | > 100 µM (inactive) | > 100 µM (inactive) | > 100 µM (inactive) | > 100 µM (inactive) | > 100 µM (inactive) | > 100 µM (inactive)
COc1ccc(/C(C)=C2\CCCN(Cc3ccccc3)C2)cc1 | 20.2 µM (inactive) | 34.6 µM (inactive) |  | 18.3 µM (inactive) | 13.5 µM (inactive) | 28.2 µM (inactive) | 22.4 µM (inactive) | 18.6 µM (inactive) | 27.2 µM (inactive) | 31.4 µM (inactive) | 23 µM (inactive) | 18.6 µM (inactive) | 15.8 µM (inactive) | 19.1 µM (inactive) | 24.2 µM (inactive) | 19.1 µM (inactive) | 22.5 µM (inactive) | 29.2 µM (inactive) | 19.9 µM (inactive)
Cc1ccc(/N=N/C(=N/NC(=O)c2ccccc2)c2ccc(N(CCC#N)CCC#N)cc2C)cc1 | 30.3 µM (inactive) | 43.2 µM (inactive) | 29.3 µM (inactive) | 41.6 µM (inactive) | 13 µM (inactive) | 29.3 µM (inactive) | 20.3 µM (inactive) | 12.5 µM (inactive) | 99.8 µM (inactive) | > 100 µM (inactive) | 26.7 µM (inactive) | > 100 µM (inactive) | 19.3 µM (inactive) | 50.4 µM (inactive) | 32.7 µM (inactive) |  | 37.4 µM (inactive) | 55 µM (inactive) | > 100 µM (inactive)
